Test results taken from PubChem BioAssay AID1033 (Sanford-Burnham Center for Chemical Genomics, 2008).
Active and inactive are the calls of the source. No rule for the calls is given here.

Each molecule was assayed against Chaperone protein DnaK (Escherichia coli (strain K12)) (UniProt P0A6Y8) (assay: binders of DnaK substrate-binding domain, biophysical, NMR, chaperone (AID 1033)). Conditions: Purified DnaK SBD, NMR ligand binding.
Sequence of Chaperone protein DnaK (Escherichia coli (strain K12)) (P0A6Y8 whole entry, looked up, the tested form may be a part): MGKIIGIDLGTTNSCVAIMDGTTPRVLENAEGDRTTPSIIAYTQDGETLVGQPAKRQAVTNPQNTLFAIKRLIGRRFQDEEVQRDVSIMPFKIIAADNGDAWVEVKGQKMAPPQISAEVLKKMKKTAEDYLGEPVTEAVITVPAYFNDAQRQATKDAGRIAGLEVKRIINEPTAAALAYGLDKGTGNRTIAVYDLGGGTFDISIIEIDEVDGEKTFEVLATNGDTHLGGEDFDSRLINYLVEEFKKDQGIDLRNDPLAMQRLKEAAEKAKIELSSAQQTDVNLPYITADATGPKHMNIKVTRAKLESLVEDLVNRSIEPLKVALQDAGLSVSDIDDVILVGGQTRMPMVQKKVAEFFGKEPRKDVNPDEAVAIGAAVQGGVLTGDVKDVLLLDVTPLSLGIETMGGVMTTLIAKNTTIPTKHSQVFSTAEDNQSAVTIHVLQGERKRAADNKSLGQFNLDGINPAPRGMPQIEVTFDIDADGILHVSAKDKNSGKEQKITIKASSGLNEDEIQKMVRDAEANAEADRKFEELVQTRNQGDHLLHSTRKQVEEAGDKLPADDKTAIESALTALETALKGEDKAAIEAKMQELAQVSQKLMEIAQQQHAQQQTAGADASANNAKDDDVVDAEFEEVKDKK
In the case of `Cc1ccc(C)c(C(=O)n2cnnc2N)c1`, the Kd was > 4 mM (inactive).
In the case of `CCCCCC1C(=O)CCC1CC(=O)O` (stereo not drawn), the Kd was > 4 mM (inactive).
With `Nc1cc(C(=O)O)ccc1N1CCCCCC1` the Kd was > 4 mM (inactive).
`CNC(Cc1c[nH]c2ccccc12)C(=O)O` (stereo not drawn) was tested, and the Kd was > 4 mM (inactive).
With `O=C1CSC(=Nc2cccc(C(=O)O)c2)N1` the Kd was > 4 mM (inactive).
For `Cc1cc(C(=O)NCc2ccco2)cs1`, the Kd was > 4 mM (inactive).
For `CC(=O)Oc1c(-c2ccccc2)oc2c(CC=C(C)C)c3c(c(OC(C)=O)c2c1=O)C=CC(C)(C)O3`, the Kd was > 4 mM (inactive).
For `Cc1nc(-c2cccc(C(=O)O)c2)cs1`, the Kd was > 4 mM (inactive).
`Nc1ccc(Oc2ccccc2)nc1` was tested, and the Kd was > 4 mM (inactive).
`S=C(c1ccc(N2CCOCC2)cc1)N1CCOCC1` was tested, and the Kd was > 4 mM (inactive).
In the case of `CCc1cc2c(SCC(=O)O)ncnc2s1`, the Kd was > 4 mM (inactive).
`CCOC(=O)c1cnc2sccn2c1=O` was tested, and the Kd was > 4 mM (inactive).
`NC(C(=O)O)C(O)C(=O)O` (stereo not drawn) was tested, and the Kd was > 4 mM (inactive).
With `OC1COCc2nc3ccccc3n2C1` (stereo not drawn) the Kd was > 4 mM (inactive).
In the case of `CNC(=O)C(=O)Nc1cccc(Cl)c1`, the Kd was > 4 mM (inactive).
With `O=C(c1ccccc1)c1ccccc1C(=O)N1CCOCC1` the Kd was > 4 mM (inactive).
`O=c1c2ccccc2oc2ccc(O)cc12` was tested, and the Kd was > 4 mM (inactive).
`CSc1nnnn1-c1cccc(O)c1` was tested, and the Kd was > 4 mM (inactive).
For `COc1c(O)cccc1O`, the Kd was > 4 mM (inactive).
In the case of `Cc1c(/C=N\n2cnnc2)c2ccccc2n1C`, the Kd was > 4 mM (inactive).
In the case of `COC(=O)C1=C(C)N(c2cccc(C(C)=O)c2)C(=O)C1`, the Kd was > 4 mM (inactive).
For `CC(=O)OCc1cc(=O)n(C)c(=O)n1C`, the Kd was > 4 mM (inactive).
In the case of `CC(C)(C)NC(=O)N1CCC(C(=O)O)CC1`, the Kd was > 4 mM (inactive).
In the case of `CC1=NN(c2ccc(C)cc2)C(=O)C1`, the Kd was > 4 mM (inactive).
In the case of `CC(=O)Nc1nnc(-c2ccncc2)s1`, the Kd was > 4 mM (inactive).
With `Cn1c(=O)c2[nH]cnc2n(-c2ccccc2)c1=O` the Kd was > 4 mM (inactive).
For `CCOC(=O)Nc1ccc2c(C)cc(=O)oc2c1`, the Kd was > 4 mM (inactive).
With `O=C1C=C(Nc2ccccc2O)c2ccccc2C1=O` the Kd was > 4 mM (inactive).
With `CC(O)C(=O)N/N=C/c1ccccc1` (stereo not drawn) the Kd was > 4 mM (inactive).
`O=C(/C(=N\O)n1cncn1)c1ccccc1Cl` was tested, and the Kd was > 4 mM (inactive).
With `O=C(O)c1cncc(-c2ccccc2)c1` the Kd was > 4 mM (inactive).
`O=C1CN(C(=O)c2ccccc2F)c2ccccc2N1` was tested, and the Kd was > 4 mM (inactive).
With `NCc1ccc(-c2cccs2)cc1` the Kd was > 4 mM (inactive).
For `Cn1cc(Cl)c(C(=O)NC2CCCCCC2)n1`, the Kd was > 4 mM (inactive).
For `CCc1c(C(=O)Nc2ccncc2)csc1C`, the Kd was > 4 mM (inactive).
`NC1=NCc2ccccc21` was tested, and the Kd was > 4 mM (inactive).
`OCCNc1ccccn1` was tested, and the Kd was > 4 mM (inactive).
In the case of `O=c1c2ccccc2nc2n1CCS2`, the Kd was > 4 mM (inactive).
`COC(=O)c1ccc(C(=S)N2CCOCC2)cc1` was tested, and the Kd was > 4 mM (inactive).
`COc1nc(-c2ccccc2)ccc1-c1noc(C)n1` was tested, and the Kd was > 4 mM (inactive).
In the case of `Cc1ccc2c(c1)CCCN2C(=O)c1ccncc1`, the Kd was > 4 mM (inactive).
With `Cc1cccc(C)c1N1C(=O)CCC1=O` the Kd was > 4 mM (inactive).
For `NCCc1cnc[nH]1`, the Kd was > 4 mM (inactive).
In the case of `O=C1C2CC=C(Cl)CC2C(=O)N1c1ccccc1O` (stereo not drawn), the Kd was > 4 mM (inactive).
In the case of `O=C1c2ccccc2-c2ncnc3cccc1c23`, the Kd was > 4 mM (inactive).
With `CC(=O)Nc1sccc1C(N)=O` the Kd was > 4 mM (inactive).
For `CNC(=O)c1ccccc1-c1ccccc1`, the Kd was > 4 mM (inactive).
With `c1n[nH]cc1-c1cn[nH]c1` the Kd was > 4 mM (inactive).
`Nc1nc2ccccc2n1CCN1CCCC1` was tested, and the Kd was > 4 mM (inactive).
`COC1=CC(C)[C@@H]2C[C@H]3OC(=O)C[C@H]4C(C)=C(OC)C(=O)C([C@@]34C)[C@@]2(C)C1=O` (stereo partly drawn) was tested, and the Kd was > 4 mM (inactive).
`COc1cc(OC)c(-c2nc3cnccc3n2C)cc1OC` was tested, and the Kd was > 4 mM (inactive).
`O=C1C=CC(=O)N1c1ccccc1O` was tested, and the Kd was > 4 mM (inactive).
With `COC(=O)c1cc(-c2c[nH]c3ccccc23)n[nH]1` the Kd was > 4 mM (inactive).
`CC1(C)CC(=O)c2sc(N)nc2C1` was tested, and the Kd was > 4 mM (inactive).
For `COC(=O)c1cc2ccccc2cn1`, the Kd was > 4 mM (inactive).
With `CCc1ccccc1NC(=O)c1ccoc1C` the Kd was > 4 mM (inactive).
`OCC1CNc2ccccc2O1` (stereo not drawn) was tested, and the Kd was > 4 mM (inactive).
For `S=c1ccc(N2CCCCC2)n[nH]1`, the Kd was > 4 mM (inactive).
`CC1(C)N=C2C(=N)C=CC=C2N1O` was tested, and the Kd was > 4 mM (inactive).
In the case of `O=C(NCc1ccco1)c1ccc(=O)[nH]c1`, the Kd was > 4 mM (inactive).
For `C[n+]1ccc(C(=O)[O-])cc1`, the Kd was > 4 mM (inactive).
With `Nc1cc(F)cc(F)c1` the Kd was > 4 mM (inactive).
For `COc1ccc(-c2c(OC)c3c(OC)c4c(cc3oc2=O)OC(C)(C)C=C4)cc1`, the Kd was > 4 mM (inactive).
`Cc1cc(C)c(C#N)c(N2CCCC2)n1` was tested, and the Kd was > 4 mM (inactive).
For `CC(C)=CCOc1cc2oc(=O)ccc2cc1O`, the Kd was > 4 mM (inactive).
`O=C(NCCO)NC(=S)c1ccccc1` was tested, and the Kd was > 4 mM (inactive).
`Cc1ccc(S(=O)(=O)CCc2ccccn2)cc1` was tested, and the Kd was > 4 mM (inactive).
With `N#CC(O[C@@H]1O[C@H](CO[C@@H]2O[C@H](CO)[C@@H](O)[C@H](O)[C@H]2O)[C@@H](O)[C@H](O)[C@H]1O)c1ccccc1` (stereo partly drawn) the Kd was > 4 mM (inactive).
`O=c1c(Cl)c(NCCO)ncn1-c1ccccc1` was tested, and the Kd was > 4 mM (inactive).
For `C=C[C@@H](C1=CC(=O)C(OC)=C(OC)C1=O)c1ccccc1`, the Kd was > 4 mM (inactive).
In the case of `Cc1cc(Cl)ccc1NC(=O)C(N)=O`, the Kd was > 4 mM (inactive).
`c1ccc(-c2nsc(N3CCNCC3)n2)cc1` was tested, and the Kd was > 4 mM (inactive).
With `O=C1N=c2ccccc2=C1c1[nH]c(=S)[nH]c1O` the Kd was > 4 mM (inactive).
For `Nc1cc(-c2ccco2)[nH]n1`, the Kd was > 4 mM (inactive).
For `OCc1c[nH]c2ccccc12`, the Kd was > 4 mM (inactive).
In the case of `Cn1c(SCCC(=O)O)nnc1-c1cccnc1`, the Kd was > 4 mM (inactive).
With `CSc1ccccc1NC(=O)c1ccncc1` the Kd was > 4 mM (inactive).
With `CCNC(CC(=O)Nc1ccc(O)cc1)C(=O)O` (stereo not drawn) the Kd was > 4 mM (inactive).
With `NCCc1nc2ccccc2[nH]1` the Kd was > 4 mM (inactive).
`O=c1[nH]c2sc3c(c2c2nncn12)CCCC3` was tested, and the Kd was > 4 mM (inactive).
For `C=CCNC(=O)c1ccc(Cl)cc1Cl`, the Kd was > 4 mM (inactive).
`O=C(CS(=O)(=O)c1ccccc1)Nc1nccs1` was tested, and the Kd was > 4 mM (inactive).
For `O=C1CSC2(CN3CCC2CC3)N1` (stereo not drawn), the Kd was > 4 mM (inactive).
With `CCCN1CCC(N2CCC(O)CC2)CC1` the Kd was > 4 mM (inactive).
For `CC(=O)c1ccc[nH]1`, the Kd was > 4 mM (inactive).
`Cc1[nH]ccc2c1[nH]c1cc(=O)ccc12` was tested, and the Kd was > 4 mM (inactive).
In the case of `CC[C@H](/C=C/C(C)C1CCC2C3CCC4=CC(=O)CC[C@]4(C)C3CC[C@]12C)C(C)C` (stereo partly drawn), the Kd was > 4 mM (inactive).
In the case of `OCC1CCN(Cc2ccccc2)CC1`, the Kd was > 4 mM (inactive).
In the case of `Nc1nc(-c2ccncc2)cs1`, the Kd was > 4 mM (inactive).
`COc1cc([C@@H]2c3cc4c(cc3[C@H](O)[C@H]3COC(=O)[C@H]23)OCO4)cc(OC)c1OC` was tested, and the Kd was > 4 mM (inactive).
`Cc1ccc(N2C(=O)CCC2=O)cc1` was tested, and the Kd was > 4 mM (inactive).
`Cn1nnc2cc(CO)ccc21` was tested, and the Kd was > 4 mM (inactive).
`COC(=O)c1ccc(Cl)c(NC(C)=O)c1` was tested, and the Kd was > 4 mM (inactive).
`Cc1ncoc1C(=O)Nc1ncc([N+](=O)[O-])s1` was tested, and the Kd was > 4 mM (inactive).
With `COC(=O)CC1=Nc2ccccc2NC(=O)C1` the Kd was > 4 mM (inactive).
In the case of `c1csc(-c2nn[nH]n2)c1`, the Kd was > 4 mM (inactive).
`N#CCN1C(=O)c2ccccc2S1(=O)=O` was tested, and the Kd was > 4 mM (inactive).
In the case of `O=c1cc(-c2cc(O)c(O)c(O)c2)oc2cc(O)cc(O)c12`, the Kd was > 4 mM (inactive).
With `CCN1CCC2(CC1)CC1CC3C=CC1(CN2C(C)=O)O3` (stereo not drawn) the Kd was > 4 mM (inactive).
With `NC(=S)NC(=O)CN1C(=O)c2ccccc2C1=O` the Kd was > 4 mM (inactive).
With `Cc1sc2nc(SC3CCOC3=O)[nH]c(=O)c2c1C` (stereo not drawn) the Kd was > 4 mM (inactive).
With `CSc1nc(C)c(Oc2ccccc2)c(=O)n1C` the Kd was > 4 mM (inactive).
For `Cc1c(C)c2c(c(C)c1O)CCC(C)(CCCC(C)CCCC(C)CCCC(C)C)O2` (stereo not drawn), the Kd was > 4 mM (inactive).
`CNC(=O)Cn1c(=O)n(C)c2ccccc21` was tested, and the Kd was > 4 mM (inactive).
For `O=C(O)CS(=O)(=O)c1ccccc1`, the Kd was > 4 mM (inactive).
For `Cc1noc(C)c1C(=O)Nc1ccccn1`, the Kd was > 4 mM (inactive).
`O=c1[nH]cc(CN2CCOCC2)c(=O)[nH]1` was tested, and the Kd was > 4 mM (inactive).
With `CC(O)c1nc2ccccc2[nH]1` (stereo not drawn) the Kd was > 4 mM (inactive).
With `C=CCn1c(-c2ccc(O)cc2)n[nH]c1=S` the Kd was > 4 mM (inactive).
With `Cc1ccc(NC(=O)CC2NCCNC2=O)c(C)c1` (stereo not drawn) the Kd was > 4 mM (inactive).
`OCc1nc2ccccc2s1` was tested, and the Kd was > 4 mM (inactive).
With `Nc1cc(N)nc(SCc2cccnc2)n1` the Kd was > 4 mM (inactive).
With `COc1cc2nc[nH]c(=O)c2cc1OC` the Kd was > 4 mM (inactive).
`O=C(O)C1C(=O)NCC1c1ccccc1` (stereo not drawn) was tested, and the Kd was > 4 mM (inactive).
For `Cc1nc2ccccc2c(=O)n1CCCn1ccnc1`, the Kd was > 4 mM (inactive).
For `COc1c(O)cc(O)cc1O`, the Kd was > 4 mM (inactive).
With `OC1CC(c2ccccc2)NC2(CCCC2)C1` (stereo not drawn) the Kd was > 4 mM (inactive).
With `COc1ccc(C(=O)CC(=O)O)c2c1C=CC(C)(C)O2` the Kd was > 4 mM (inactive).
For `OCc1ccc(-c2ccccn2)s1`, the Kd was > 4 mM (inactive).
For `Cc1cccnc1NC1=NCC(C)S1` (stereo not drawn), the Kd was > 4 mM (inactive).
For `CC1CCN(C(=S)c2ccccc2O)CC1`, the Kd was > 4 mM (inactive).
In the case of `O=C(O)c1ccc2[nH]c3c(c2c1)CSCC3`, the Kd was > 4 mM (inactive).
With `Cn1ccc(NC(=S)NC2CCCC2)n1` the Kd was > 4 mM (inactive).
With `Cc1ccc(N)nc1` the Kd was > 4 mM (inactive).
In the case of `Cc1nn(C)c(Cl)c1C(O)c1c(C)nn(C)c1Cl`, the Kd was > 4 mM (inactive).
In the case of `Cc1cccc(C)c1NC(=O)/C=C/C(=O)O`, the Kd was > 4 mM (inactive).
In the case of `Cc1nnc2sc(-c3ccco3)nn12`, the Kd was > 4 mM (inactive).
With `O=C(Oc1ccc2c(c1)OCC2=O)c1ccccc1` the Kd was > 4 mM (inactive).
